The text below walks through data of patent US11730937B2, “Separable microneedle arrays for sustained release of drug” (Georgia Tech Research Corporation, priority 2017, dated 2023).

A short description of the data set: in vivo. Conditions: female, Sprague Dawley, rat, iv, 0.006 mg.

Method: Specifically, LNG pharmacokinetics were evaluated in adult female Sprague Dawley rats (200±12 g) by applying a LNG-loaded microneedle patch to each rat while under isoflurane anesthesia. The rats' dorsal skin was shaved before application of microneedle patches, taking care not to damage skin during shaving.
Plasma was then separated by centrifuging blood samples at 2000 g for 15 minutes at 4° C., and underwent subsequent analysis by enzyme-linked immunosorbent assay (ELISA, Thermo Fisher Scientific) following the manufacturer's instruction to determine LNG concentration.
Pharmacokinetic parameters were calculated using non-compartmental pharmacokinetic analysis. […] Bioavailability of LNG delivered from microneedles was calculated from the ratio of dose-normalized AUC values after microneedle patch administration and intravenous LNG injection.

Molecule `C#C[C@]1(O)CC[C@H]2[C@@H]3CCC4=CC(=O)CC[C@@H]4[C@H]3CC[C@@]21CC` [LNG, levonorgestrel] gave an AUC(0-inf) of 17.2 ± 0.3 ng·h/mL, an exposure AUC(0-t) of 17.2 ± 0.3 ng·h/mL and a half-life of 20.7 ± 0.6 h.
